Reference: ChEMBL document CHEMBL3046219, “Inhibitive Effect of Prodigiosin on the Proliferation of Human Malignant Pancreatic Cancer Cells” (Med Chem Res, 2005)
The source made the active and inactive calls.

Tests used:
[1] = Cell cycle arrest in Homo sapiens (human) H8898 cells assessed as retardation at G1/S phase at 12 to 50 umol after 24 hr by flow cytometry; type: functional
[2] = Cell cycle arrest in Homo sapiens (human) H8898 cells assessed as reduction in S phase cells at 12 to 50 umol after 24 hr by flow cytometry; type: functional, cell-based
[3] = Cytotoxicity against Homo sapiens (human) H8898 cells assessed as reduction in cell viability at 50 umol after 12 hr by MTT assay; type: functional
[4] = Drug uptake in Homo sapiens (human) H8898 cells after 24 hr by HPLC analysis; type: ADME
Homo sapiens [5] = species: Homo sapiens; assay: (§1) Cytotoxicity against Homo sapiens (human) H8898 cells assessed as reduction in cell viability after 12 hr by MTT assay; type: functional, cell-based
[6] = as §1; type: functional, cell-based
Homo sapiens [7] = species: Homo sapiens; assay: Cytotoxicity against Homo sapiens (human) H8898 cells assessed as reduction in cell viability at 50 umol after 2 days by MTT assay; type: functional, cell-based
Homo sapiens [8] = species: Homo sapiens; assay: Inhibition of clone formation in Homo sapiens (human) H8898 cells after 5 days using trypan blue staining by inverted microscopy; type: functional
Homo sapiens [9] = species: Homo sapiens; assay: Cytotoxicity against Homo sapiens (human) H8898 cells assessed as reduction in cell viability at 50 umol at 12 hr by MTT assay; type: functional, cell-based
Homo sapiens [10] = species: Homo sapiens; assay: Induction of DNA fragmentation in Homo sapiens (human) H8898 cells at 50 umol after 24 hr by agarose gel electrophoresis; type: functional
[11] = Cytotoxicity against Homo sapiens (human) H8898 cells assessed as reduction in cell viability at 50 umol after 8 to 12 hr by MTT assay; type: functional
[12] = Cell cycle arrest in Homo sapiens (human) H8898 cells assessed as increase in G0-G1 phase cells at 12 to 50 umol after 24 hr by flow cytometry; type: functional, cell-based
Homo sapiens [13] = species: Homo sapiens; assay: Induction of DNA fragmentation in Homo sapiens (human) H8898 cells at 12.5 umol after 24 hr by agarose gel electrophoresis; type: functional
Homo sapiens [14] = species: Homo sapiens; assay: Antiproliferative activity against Homo sapiens (human) H8898 cells after 5 days using trypan blue staining by hemocytometry; type: functional
[15] = Cytotoxicity against Homo sapiens (human) H8898 cells assessed as reduction in cell viability at 25 umol after 12 hr by MTT assay; type: functional
Homo sapiens [16] = species: Homo sapiens; assay: Cytotoxicity against Homo sapiens (human) H8898 cells assessed as reduction in cell viability at 50 umol up to 5 days by MTT assay; type: functional, cell-based
Homo sapiens [17] = species: Homo sapiens; assay: Induction of apoptosis in Homo sapiens (human) H8898 cells assessed as cell compaction at 12.5 umol after 12 hr by microscopy; type: functional
Homo sapiens [18] = species: Homo sapiens; assay: Induction of apoptosis in Homo sapiens (human) H8898 cells assessed as cytoplasm leakage into membrane bound vesicles at 12.5 umol after 12 hr by microscopy; type: functional
Homo sapiens [19] = species: Homo sapiens; assay: Induction of oxidative stress in Homo sapiens (human) H8898 cells assessed as increase in intracellular ROS level after 12 hr using CDCFH-DA by spectrophotometry; type: functional, cell-based
Homo sapiens [20] = species: Homo sapiens; assay: Induction of apoptosis in Homo sapiens (human) H8898 cells at 12.5 to 50 umol after 24 hr by FACS analysis; type: functional
Homo sapiens [21] = species: Homo sapiens; assay: Cytotoxicity against Homo sapiens (human) H8898 cells assessed as reduction in cell viability at 50 umol by MTT assay; type: functional, cell-based; details: TDE = time-dependent effect

CCCCCC1=C/C(=C/c2[nH]c(-c3ccc[nH]3)cc2OC)N=C1C [PRODIGIOSIN]
34%: Activity [3]
active: Activity [1] | Activity [2] | Activity (Homo sapiens [5]) Dose-dependent effect | Activity (Homo sapiens [7]) | Activity (Homo sapiens [8]) | Activity (Homo sapiens [9]) | Activity (Homo sapiens [10]) | Activity [12] | Activity (Homo sapiens [13]) | Activity (Homo sapiens [14]) | Activity (Homo sapiens [16]) | Activity (Homo sapiens [17]) | Activity (Homo sapiens [18]) | Activity (Homo sapiens [19]) Dose-dependent effect | Activity (Homo sapiens [20]) | Activity (Homo sapiens [21]) tde
5.6%: Activity [15]
28%: Activity [11]
Dose-dependent effect: Drug uptake [4]
75 µM: IC50 [6]
